Data on 19 compounds can be found in patent US7125903B1 (Aventis Pharmaceuticals Inc., priority 1999, dated 2006).

Each structure is given as a SMILES string. pEC50, pKi: −log10 of the molar value. Structures can show the parent of a compound that is named as a salt. Where two headings read alike, the source gives them in different places.

Data set [1] addresses T1, human D4 receptor (D4.2 sub-type) (Homo sapiens, UniProt P21917, DEL265-296).
T1 construct: expressed in transfected cells
T1 sequence (P21917 with tags, fused parts or gaps DEL265-296): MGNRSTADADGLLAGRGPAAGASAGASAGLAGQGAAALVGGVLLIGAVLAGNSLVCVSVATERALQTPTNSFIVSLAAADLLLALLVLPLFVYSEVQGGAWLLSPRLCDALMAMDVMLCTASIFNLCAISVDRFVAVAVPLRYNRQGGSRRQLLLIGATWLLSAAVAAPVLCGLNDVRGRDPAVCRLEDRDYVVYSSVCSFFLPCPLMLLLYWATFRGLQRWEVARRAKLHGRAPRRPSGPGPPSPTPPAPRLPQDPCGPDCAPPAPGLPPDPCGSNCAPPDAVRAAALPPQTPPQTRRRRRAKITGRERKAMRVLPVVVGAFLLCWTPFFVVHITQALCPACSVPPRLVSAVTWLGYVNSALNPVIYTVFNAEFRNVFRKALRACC
Kind of data set: D4 receptor binding assay (3H-spiperone displacement). To be noted: for pKi: 3H-spiperone 0.25 nM, membranes of HEK 298 cells with human D4.2, Cheng-Prusoff from IC50, read-out: D4 RBA Ki; for inhibition at 1 µM: 1 μM test compound, inhibition of 3H-spiperone binding, read-out: D4 RBA % Inhib. @ 1 μM. The protocol: D4 receptor-binding affinities of the compounds were evaluated according to their ability to reduce binding of ^3H-spiperone as compared to the reference compound clozapine. The potency of the test compound to reduce ^3H-spiperone binding directly correlated to its binding affinity for the receptor.
[…] (human embryonic kidney) cells stably transfected with human D4 receptor (D4.2 sub-type) were grown in NUNC cell factories for 5 days (75% confluency) without a media change and removed with versene (approximately 19 mg of cells per cell factory tray). The cells were then centrifuged in a Sorval centrifuge for 10 min, 5000 rpm (GS3 rotor) and the pellets quickly frozen in liquid nitrogen and stored at −80° C. until used in binding assay. When used in the assay, cells were thawed on ice for 20 min and then 10 mL of incubation buffer (50 mM Tris, 1 mM EDTA, 4 mM MgCl2, 5 mM KCl, 1.5 mM CaCl2, 120 mM NaCl, pH 7.4) was added. The cells were then vortexed to resuspend pellet and homogenized with a Kinematica, CH-6010 Kriens-LU, homogenizer for 15 seconds at setting 7. Concentration of receptor protein was determined using the Pierce BCA assay.
The incubation was started by the addition of 100 μl (50 μg protein) membrane homogenate to a solution of 300 μl incubation buffer and 100 μl (0.25 nM final conc.) ^3H-spiperone (90 Ci/mmol, Amersham, diluted in borosilicate glass vial) in 96-well polypropylene plates (1 mL per well). The plates were vortexed and incubated at room temperature for 90 minutes. The binding reaction was stopped by filtering using a Packard Harvester. The samples were filtered under vacuum over glass fibre filter plates (Whatman GF/B) presoaked for 2 hours in 0.3% polyethylenimine (PEI) in 50 mM Tris buffer (pH 7.4). The filters were then washed 6 times with 7 mL ice cold 50 mM Tris buffer (pH 7.4). The filter plates were dried overnight and 35 μl of Microscint-O (Packard) was added. The plates were sealed and counted in the Packard Top Count (3 minutes per well).
The incubation was started by the addition of 100 μl (50 μg protein) membrane homogenate to a solution of 200 μl incubation buffer, 100 μl ^3H-spiperone (90 Ci/mmol, Amersham, diluted in borosilicate glass vial to 0.25 nM final conc.) and 100 μl (30 μM final conc.) of fresh dopamine (Research Biochemicals Inc., light protected and dissolved in incubation buffer) in 96-well polypropylene plates (1 mL per well). The plates were vortexed and incubated at room temperature for 90 minutes at which time the binding reaction was stopped by filtering. The filters were washed and counted using the same procedure as in the total binding assay described above to give the nonspecific binding value (NSB).
The incubation was started by the addition, in 96-well polypropylene plates (1 mL per well), of 100 μl (50 μg protein) membrane homogenate to a solution of 200 μl incubation buffer, 100 μl (0.25 nM final conc.) ^3H-spiperone (90 Ci/mmol, Amersham, diluted in borosilicate glass vial) and 100 μl of test compound that was prepared from 1 mM stock dissolved in DMSO and stored at −20° C. in polypropylene cryogenic storage vials until dilution in incubation buffer in 96-well polypropylene plates. The plates were vortexed and incubated at room temperature for 90 minutes at which time the binding reaction was stopped by filtering. The filters were washed and counted using the same procedure as in the total binding assay described above to give the displacement binding value (BD).
The test compounds were initially assayed at 1 and 0.1 μM and then at a range of concentrations chosen such that the middle dose would cause about 50% inhibition of ^3H-spiperone binding. Specific binding in the absence of test compound (B0) was the difference of total binding (BT) minus non-specific binding (NSB) and similarly specific binding (in the presence of test compound) (B) was the difference of displacement binding (BD) minus non-specific binding (NSB). […]

Data set [2] relates to MK801 Stereotypy. Kind of data set: MK-801 Stereotypy in Mice. It counts as in vivo. As to conditions: Mus musculus, read-out: Antagonism of MK801 Stereotypy % Inhib. @ 20 mg/kg (route). How it is done:
Mk-801 dose-dependently induces characteristic stereotypy marked by locomotion and falling behavior. This MK-801 induced behavior can be antagonized by novel neuroleptic agents. This assay can also assess time course effects following drug administration.
CD-1 or C57 male mice are individually placed in activity boxes (8 mice/drug) and allowed to acclimate for 60 minutes. The mice are then administered test compounds either i.p., s.c., or p.o., at 15, 30, or 60 minutes prior to MK-801 (0.2 mg/kg) administration. Mice are observed for the presence of locomotion and falling behaviors 15 minutes following MK-801. For the duration of action studies the test compounds are administered i.p., s.c., or p.o., at 30, 60, 120, 180, and 240 minutes prior to MK-801 administration.

The target of data set [3] is human D4 receptor with seven repeat units (D4.7 variant). To be noted: read-out: EC50 of dopamine; cited from earlier work.
Where [4] appears, read: 20 mg/kg ip, mice, MK-801 0.2 mg/kg.
Where [5] appears, read: 20 mg/kg po, mice, MK-801 0.2 mg/kg.
[6] abbreviates: 20 mg/kg sc, mice, MK-801 0.2 mg/kg.

With `O[C@H](CNCc1cccs1)COc1cccc(-c2noc3ccsc23)c1` [Compound 6, (2R)-1-(3-thieno[2,3-d]isoxazol-3-yl-phenoxy)-3-[(thiophen-2-ylmethyl)amino]propan-2-ol L-tartrate], in data set [1], the pKi was 7.90. In addition, in data set [2] (setting [4]), the inhibition in vivo at 20 mg/kg turned out to be 25%.
Compound `C[C@@](O)(CNCc1cccs1)COc1cccc(-c2noc3ccsc23)c1.O=C(O)/C=C\C(=O)O` [Compound 5, (2R)-2-methyl-1-(3-thieno[2,3-d]isoxazol-3-yl-phenoxy)-3-[thienophen-2-ylmethyl)-amino-propan-2-ol maleate] showed a melting point of 51 to 52 °C. For the same compound, in data set [2] (setting [4]), the inhibition in vivo at 20 mg/kg is 37.5%.
Turning to `O[C@H](CNCc1ccsc1)COc1cccc(-c2noc3ccsc23)c1` [Example 9], the pKi in data set [1] was 8.12. Moreover, the inhibition in vivo at 20 mg/kg in data set [2] (setting [4]) worked out at 12%.
Regarding `C[C@](O)(CNCc1ccc(Cl)c(Cl)c1)COc1cccc(-c2noc3ccsc23)c1` [Example 54], the pKi in data set [1] was 7.89. In addition, the inhibition in vivo at 20 mg/kg in data set [2] (setting [5]) came out at 62.5%.
In turn, `O[C@@H](COc1cccc(-c2noc3ccsc23)c1)CN1CCN(Cc2ccc3c(c2)OCO3)CC1` (as salt: hydrochloride) [Example 51, (2R)-1-(4-benzo[1,3]dioxol-5-ylmethyl-piperazin-1-yl)-3-(3-thieno[2,3-d]isoxazol-3-yl-phenoxy)propan-2-ol] returned a melting point of 225 to 227 °C.
As to `OC(CNC[C@@H](O)COc1cccc(-c2noc3ccsc23)c1)c1ccccc1` (some centres unmarked) [Example 27], the pKi in data set [1] was 6.88. Moreover, the inhibition in vivo at 20 mg/kg in data set [2] (setting [6]) is 75%.
`COc1ccc(N2CCN(C[C@@H](O)COc3cccc(-c4noc5ccsc45)c3)CC2)cc1` [Example 48, (2R)-1-[4-(4-methoxyphenyl)piperazin-1-yl]-3-(3-thieno[2,3-d]isoxazol-3-yl-phenoxy)-propan-2-ol]: the melting point lay in the range of 110 to 113 °C.
Regarding `O[C@@H](COc1cccc(-c2noc3ccsc23)c1)CN1CCN(c2ccccc2C(F)(F)F)CC1` [Example 52, (2R)-1-(3-thieno[2,3-d]isoxazol-3-yl-phenoxy)-3-[4-(2-trifluoromethylphenyl)-piperazin-1-yl]propan-2-ol], the melting point was in the range of 77 to 79 °C.
In the case of `NCCc1ccc(O)c(O)c1` [dopamine], the pEC50 in data set [3] was 7.40.
`N#Cc1ccccc1N1CCN(C[C@@H](O)COc2cccc(-c3noc4ccsc34)c2)CC1` [Example 50, 2-{4-[(R)-2-hydroxy-3-(3-thieno[2,3-d]isoxazol-3-yl-phenoxy)-propyl]piperazin-1-yl}benzonitrile] had a melting point of 87 to 89 °C.
Take `Cc1ccc(CNC[C@](C)(O)COc2cccc(-c3noc4ccsc34)c2)cc1` [Example 58, hydrochloride]: the inhibition at 1 µM in data set [1] was determined as 100%. For the same compound, in data set [2] (po), the inhibition in vivo at 20 mg/kg came out at 37.5%.
With `O[C@@H](COc1cccc(-c2noc3ccsc23)c1)CN1CCN(c2ccccc2F)CC1` [Example 44, (2R)-1-[4-(2-fluorophenyl)piperazin-1-yl]-3-(3-thieno[2,3-d]isoxazol-3-yl-phenoxy)-propan-2-ol], the melting point fell in the range of 96 to 99 °C.
As for `O[C@@H](COc1cccc(-c2noc3ccsc23)c1)CN1CCN(c2ccccc2)CC1` [Example 49, (2R)-1-(4-phenylpiperazin-1-yl)-3-(3-thieno[2,3-d]isoxazol-3-yl-phenoxy)propan-2-ol], the melting point was 127 to 129 °C.
Turning to `C[C@@](O)(CNCc1ccc(F)cc1)COc1cccc(-c2noc3ccsc23)c1` [Example 15], in data set [1], the pKi is 7.96. Besides, the inhibition in vivo at 20 mg/kg in data set [2] (setting [6]) stood at 50%.
For the compound `O[C@@H](COc1cccc(-c2noc3ccsc23)c1)CN1CCN(c2cccc(Cl)c2)CC1` [Example 47, (2R)-1-[4-(3-chlorophenyl)piperazin-1-yl]-3-(3-thieno[2,3-d]isoxazol-3-yl-phenoxy)-propan-2-ol], the melting point is 118 to 120 °C.
For the compound `C[C@](O)(CNCc1ccccc1Cl)COc1cccc(-c2noc3ccsc23)c1` [Example 53], the inhibition at 1 µM in data set [1] was 96%. In data set [2] (setting [5]), the inhibition in vivo at 20 mg/kg was found to be 50%.
Take `C[C@@](O)(CNCc1ccccc1)COc1cccc(-c2noc3ccsc23)c1` [Compound 4, (2R)-(−)-1-benzylamino-2-methyl-3-(3-thieno[2,3-d]isoxazol-3-yl-phenoxy)propan-2-ol maleate]: the pKi in data set [1] was 7.42. Besides, the inhibition in vivo at 20 mg/kg in data set [2] (setting [4]) was determined as 12.5%.
Consider `C[C@](O)(CNCc1ccccc1)COc1cccc(-c2noc3ccsc23)c1` [Compound 3, (2S)-(+)-1-benzylamino-2-methyl-3-(3-thieno[2,3-d]isoxazol-3-yl-phenoxy)propan-2-ol maleate], for which the pKi in data set [1] was 8.48. Moreover, in data set [2] (setting [4]), the inhibition in vivo at 20 mg/kg is 37.5%.
As for `O[C@@H](COc1cccc(-c2noc3ccsc23)c1)CN1CCN(c2ccccc2Cl)CC1` [Example 46, (2R)-1-[4-(2-chlorophenyl)piperazin-1-yl]-3-(3-thieno[2,3-d]isoxazol-3-yl-phenoxy)-propan-2-ol], the melting point lay in the range of 83 to 86 °C.

For orientation: pKi means the Ki on a negative log10 scale, so that one unit is a factor of ten. By melting point is commonly meant the temperature, or range, at which the solid turns liquid. The term pEC50 denotes the EC50 on a negative log10 scale, so that one unit is a factor of ten.
